The source of these data is patent publication US12565490B2, “Inhibitors of Receptor Interacting Protein Kinase I for the treatment of disease” (Board of Regents, The University of Texas System, priority 2020, dated 2026).

What is called IC50 is the concentration needed to halve the response being measured.

The assay has as its system human monocytic cell line U937. Nature of the assay: Human U937 cellular necroptosis assay. Particulars: U-937; U937 cells stimulated with 25 ng/mL human TNFalpha and 25 μM z-VAD-FMK; 22 hr; viability by Cell Titer-Glo 2.0; read-out: hU937 IC50. Format: cell-based. How it is done:
Human U937 Cellular Necroptosis Assay
The human monocytic cell line U937 (CRL-1593.2) may be purchased from ATCC. The cells are routinely maintained in RPMI-1640 Medium (Gibco, Catalog #11875-093) supplemented with 10% heat inactivated fetal bovine serum (Gibco, Catalog #16140-071), 100 units/mL penicillin and 100 μg/mL streptomycin (Gibco, Catalog #15140-122), in a humidified incubator (37° C., 5% CO2). For the assay, cells are resuspended in RPMI-1640 phenol red free Media (Gibco, Catalog #11835-030) supplemented with 10% fetal bovine serum (Sigma, Catalog #F2442), 100 units/mL penicillin and 100 ug/mL streptomycin. Cells are stimulated with 25 ng/mL human TNFalpha (Cell Sciences, Catalog #CSI15659B) and 25 μM z-VAD-FMK (R&D Systems, Catalog #FMK001) followed by seeding 5000 cells per well in a volume of 40 μL to a white, CulturPlate-384 (Perkin Elmer, Catalog #6007680). Stock solutions of the test compounds are prepared in 100% DMSO (Sigma, Catalog #D2650) and serially diluted 1:3 using 100% DMSO. Compounds are additionally diluted 1:40 in assay medium, and 10 μL/well was transferred to the plate. Following the compound addition, the plate is incubated at 37° C. and 5% CO2 for 22 hr. After 22 hr, viability is assessed with the addition of 20 μL of Cell Titer-Glo 2.0 (Promega, Catalog #G9243). The tissue culture plate is shaken on an orbital shaker at 300 RPM for 15 minutes at room temperature in the dark. Luminescence is measured using a PerkinElmer Envision™ plate reader. IC50 values are calculated using a four-parameter logistic curve fit using Genedata Screener software. Compounds disclosed herein are expected to have activity in this assay.
On the technique in general: ATP-based viability assays read luminescence as a measure of living cells.
`Cc1ccc(-c2nc(C(=O)N[C@H]3COc4cc(C#N)ccc4N(C)C3=O)ncc2C)c(F)c1` [Example 30, (S)-N-(8-cyano-5-methyl-4-oxo-2,3,4,5-tetrahydro-benzo[b][1,4]oxazepin-3-yl)-4-(2-fluoro-4-methylphenyl)-5-methylpyrimidine-2-carboxamide]: the IC50 stood at 0.0323 µM.

Turning to `Cc1cnc(C(=O)N[C@H]2COc3cc(C#N)ccc3N(C)C2=O)nc1N1CCN(C)CC1` [Example 31, (S)-N-(8-cyano-5-methyl-4-oxo-2,3,4,5-tetrahydro-benzo[b][1,4]oxazepin-3-yl)-5-methyl-4-(4-methylpiperazin-1-yl)pyrimidine-2-carboxamide], the IC50 is at least 10 µM.

`Cc1cnc(C(=O)N[C@H]2COc3cc(C#N)ccc3N(C)C2=O)nc1N1CC(F)(F)C1` [Example 32, (S)-N-(8-cyano-5-methyl-4-oxo-2,3,4,5-tetrahydro-benzo[b][1,4]oxazepin-3-yl)-4-(3,3-difluoroazetidin-1-yl)-5-methylpyrimidine-2-carboxamide]: the IC50 amounted to 1.12 µM.

In the case of `Cc1ccc(C(=O)N[C@H]2COc3cc(C#N)ccc3N(C)C2=O)nc1Br` [Example 33, (S)-6-bromo-N-(8-cyano-5-methyl-4-oxo-2,3,4,5-tetrahydro-benzo[b][1,4]oxazepin-3-yl)-5-methylpicolinamide], the 50% inhibitory concentration (IC50) was at least 10 µM.

Regarding `Cc1ccc(C(=O)Nc2cccc(Cl)c2F)nc1-c1ccccc1` [Example 34, N-(3-chloro-2-fluorophenyl)-5-methyl-6-phenylpicolinamide], the IC50 was at least 10 µM.

For the compound `Cc1ccc(C(=O)Nc2cccc(Cl)c2F)nc1-c1cc(F)ccc1F` [Example 35, N-(3-chloro-2-fluorophenyl)-6-(2,5-difluorophenyl)-5-methylpicolinamide], the IC50 was at least 10 µM.

With `Cc1ccc(C(=O)N[C@H]2COc3cc(C#N)ccc3N(C)C2=O)nc1-c1ccc(F)cc1` [Example 36, (S)-N-(8-cyano-5-methyl-4-oxo-2,3,4,5-tetrahydro-benzo[b][1,4]oxazepin-3-yl)-6-(4-fluorophenyl)-5-methyl-picolinamide], the IC50 was 0.26 µM.

Take `CN1C(=O)[C@@H](NC(=O)c2ccc(Cl)c(-c3ccc(F)cc3)n2)COc2cc(C#N)ccc21` [Example 37, (S)-5-chloro-N-(8-cyano-5-methyl-4-oxo-2,3,4,5-tetrahydro-benzo[b][1,4]oxazepin-3-yl)-6-(4-fluorophenyl)picolinamide]: the IC50 was found to be 1.56 µM.

On to `Cc1cnc(C(=O)N[C@H]2COc3cc(C#N)ccc3N(C)C2=O)nc1-c1ccc(F)cc1F` [Example 38, (S)-N-(8-cyano-5-methyl-4-oxo-2,3,4,5-tetrahydro-benzo[b][1,4]oxazepin-3-yl)-4-(2,4-difluorophenyl)-5-methyl-pyrimidine-2-carboxamide], for which the IC50 stood at 0.0189 µM.

In the case of `Cc1cnc(C(=O)N[C@H]2COc3ccc(CN4CCn5ncnc5C4)cc3N(C)C2=O)nc1-c1ccccc1` [Example 39, (S)-N-(7-((5,6-dihydro-[1,2,4]triazolo[1,5-a]pyrazin-7(8H)-yl)methyl)-5-methyl-4-oxo-2,3,4,5-tetrahydro-benzo[b][1,4]oxazepin-3-yl)-5-methyl-4-phenylpyrimidine-2-carboxamide], the IC50 turned out to be 0.0129 µM.

In the case of `Cc1ccc(C(=O)N[C@H]2COc3cc(C#N)ccc3N(C)C2=O)nc1-c1ccccc1` [Example 40, (S)-N-(8-cyano-5-methyl-4-oxo-2,3,4,5-tetrahydro-benzo[b][1,4]oxazepin-3-yl)-5-methyl-6-phenylpicolinamide], the IC50 was 1.57 µM.

Regarding `Cc1ccc(C(=O)N[C@H]2COc3cc(C#N)ccc3N(C)C2=O)nc1-c1cc(F)ccc1F` [Example 41, (S)-N-(8-cyano-5-methyl-4-oxo-2,3,4,5-tetrahydro-benzo[b][1,4]oxazepin-3-yl)-6-(2,5-difluorophenyl)-5-methylpicolinamide], the IC50 was determined as 0.594 µM.

On to `Cc1cnc(C(=O)N[C@H]2COc3cc(C#N)ccc3N(C)C2=O)nc1-c1ccccc1F` [Example 42, (S)-N-(8-cyano-5-methyl-4-oxo-2,3,4,5-tetrahydro-benzo[b][1,4]oxazepin-3-yl)-4-(2-fluorophenyl)-5-methylpyrimidine-2-carboxamide], for which the IC50 came to 0.0194 µM.

As to `Cc1cnc(C(=O)N[C@H]2COc3cc(C#N)ccc3N(C)C2=O)nc1C1CCCOC1` (stereo partly drawn) [Example 43, N-((S)-8-cyano-5-methyl-4-oxo-2,3,4,5-tetrahydro-benzo[b][1,4]oxazepin-3-yl)-5-methyl-4-(tetrahydro-2H-pyran-3-yl)pyrimidine-2-carboxamide], the IC50 came out at 0.154 µM.

For `Cc1cnc(C(=O)N[C@H]2COc3cc(C#N)ccc3N(C)C2=O)nc1N1CC2CCC1C2` (stereo partly drawn) [Example 44, 4-(2-azabicyclo[2.2.1]heptan-2-yl)-N-((S)-8-cyano-5-methyl-4-oxo-2,3,4,5-tetrahydro-benzo[b][1,4]oxazepin-3-yl)-5-methylpyrimidine-2-carboxamide], the 50% inhibitory concentration (IC50) is 0.789 µM.

For the compound `Cc1cnc(C(=O)N[C@H]2COc3cccnc3N(C)C2=O)nc1-c1ccccc1F` [Example 45, (S)-4-(2-fluorophenyl)-5-methyl-N-(5-methyl-4-oxo-2,3,4,5-tetrahydropyrido[3,2-b][1,4]oxazepin-3-yl)pyrimidine-2-carboxamide], the IC50 was 0.01 µM.

On to `CN1C(=O)[C@@H](NC(=O)c2ncc(Cl)c(-c3ccc(F)cc3F)n2)COc2ccccc21` [Example 46, (S)-5-chloro-4-(2,4-difluorophenyl)-N-(5-methyl-4-oxo-2,3,4,5-tetrahydrobenzo[b]-[1,4]oxazepin-3-yl)pyrimidine-2-carboxamide], for which the IC50 is 0.0118 µM.

In the case of `CN1C(=O)[C@@H](NC(=O)c2ncc(Cl)c(-c3ccccc3F)n2)COc2cccnc21` [Example 47, (S)-5-chloro-4-(2-fluorophenyl)-N-(5-methyl-4-oxo-2,3,4,5-tetrahydro-pyrido[3,2-b][1,4]oxazepin-3-yl)pyrimidine-2-carboxamide], the IC50 turned out to be 0.0298 µM.

With `CN1C(=O)[C@@H](NC(=O)c2ncc(Cl)c(-c3cccc(F)c3)n2)COc2cccnc21` [Example 48, (S)-5-chloro-4-(3-fluorophenyl)-N-(5-methyl-4-oxo-2,3,4,5-tetrahydro-pyrido[3,2-b][1,4]oxazepin-3-yl)pyrimidine-2-carboxamide], the IC50 came to 0.0132 µM.

Consider `CN1C(=O)[C@@H](NC(=O)c2ncc(Cl)c(-c3ccc(F)cc3)n2)COc2cccnc21` [Example 49, (S)-5-chloro-4-(4-fluorophenyl)-N-(5-methyl-4-oxo-2,3,4,5-tetrahydro-pyrido[3,2-b][1,4]oxazepin-3-yl)pyrimidine-2-carboxamide], for which the IC50 stood at 0.00835 µM.

Consider `CN1C(=O)[C@@H](NC(=O)c2ncc(Cl)c(-c3ccc(F)cc3F)n2)COc2cccnc21` [Example 50, (S)-5-chloro-4-(2,4-difluorophenyl)-N-(5-methyl-4-oxo-2,3,4,5-tetrahydro-pyrido[3,2-b][1,4]oxazepin-3-yl)pyrimidine-2-carboxamide], for which the IC50 turned out to be 0.00929 µM.

Consider `CN1C(=O)[C@@H](NC(=O)c2ncc(Cl)c(-c3cc(F)ccc3F)n2)COc2cccnc21` [Example 51, (S)-5-chloro-4-(2,5-difluorophenyl)-N-(5-methyl-4-oxo-2,3,4,5-tetrahydro-pyrido[3,2-b][1,4]oxazepin-3-yl)pyrimidine-2-carboxamide], for which the IC50 worked out at 0.0106 µM.
